Source: paper PMC12808126 (Scientific Reports, 2025)

Tests used:
Type in all cases: cell-based
Conditions in all cases: to LPS control
IL-1β = IL-1β suppression assay
TNF-α = TNF-α suppression assay
IL-6 = IL-6 suppression assay

Compound: NS(=O)(=O)c1ccc(-n2nc(C(=O)NN3C(=O)CCC3=O)cc2-c2ccccc2)cc1 [AS-11, N-(2,5-dioxopyrrolidin-1-yl)−5-phenyl-1-(4-sulfamoylphenyl)−1H-pyrazole-3-carboxamide]
- IL-1β release percentage inhibition (IL-1β): 75%
- TNF-α release percentage inhibition (TNF-α): 91%
- IL-6 release percentage inhibition (IL-6): 61%
